Legend:
[1] = tested on: wild-type E. coli CGSC#7636 (BW25113); experiment: MIC, wild-type E. coli; type: cell-based
Method: The inoculum used for all the experiments is derived from a single seed lot that is maintained as glycerol stocks at −80 °C and are sub cultured on LB plate for isolated colonies. Single colony of each strain is grown in M9 medium. All test compound stocks and dilutions are prepared in DMSO. Serial two-fold dilutions of compounds are prepared separately, with the concentrations ranging from 2 mg/mL to 0.015 mg/mL. To 150 µl (3–7 × 10^5 CFU/ml) of bacterial culture in 96 well microtitre plates, 3 μL compound from each of the dilutions is added to respective wells to obtain final concentrations ranging from 40 µg/mL to 0.3 µg/mL of the test compounds. Media control, culture control and appropriate reference drug controls are included. […] Growth is monitored by checking absorbance at 600 nm (A600). […] The samples from MIC and above concentrations are plated for MBC (Minimum Bactericidal Concentration). The samples are diluted 1:10 and plated on LB agar plates. […] The killing kinetics is determined by enumerating survivors at various time points following compound exposure. E. coli cells (~10^7 CFU/ml; A600 of 0.1) are treated with various concentrations (40 µg/mL to 0.3 µg/mL) of compounds in a 96-well microtitre plate. At various time intervals (0 to 8 h), 30 μl volumes of treated cultures are serially diluted and plated on LB agar plates. […] Data is expressed as the log10 CFU for each drug treatment.

NfsB = molecular target: T1, NfsB (Escherichia coli, UniProt P38489); experiment: Nitroreductase activity assay, NfsB; type: biochemical, E. coli; details: 20 μM compound, 40 μM NADH, 70 nM NfsB; slope of initial velocity
T1 construct: His-tag; made in house; host or cells: E. coli BL21(DE3), pET28a (pET-nfsB)
Method: Enzyme reducing each of the substrates are measured by monitoring the concomitant oxidation of NADPH by NfsA and NADH by NfsB in a fluorescence based assay. The reduction in fluorescence due to the NADH oxidation (excitation 350 nm, emission 460 nm) and NADPH oxidation (excitation 340 nm, emission 485 nm) is recorded using a TECAN Infinite M200Pro spectrophotometer, in half area solid black microtiter plates. This change in fluorescence directly corelates to the reduction of the nitro-compounds in the reaction. The NfsA assays is performed by initiating the reactions with 40 μM NADPH and 10 nM NfsA in 50 mM Tris-HCl (pH 7.4), 5 mM EDTA against 20 μM substrate (5 μl of compounds/substrate dissolved in 100% DMSO) in a total reaction volume of 100 μl at 25 °C. Similarly, the NfsB assay is also performed by initiating the reactions with 40 μM NADH and 70 nM NfsB in 50 mM Tris-HCl (pH 7.4), 5 mM EDTA against 20 μM substrate in a total reaction volume of 100 μl. […] All reactions are performed in replicates of two or more and the fluorescence measurements are made at 10 second intervals for 5–10 minutes.
Low solubility of the compounds/substrates under the NfsA and NfsB assay conditions precluded determination of their Km. […] The relative fluorescence units (RFU) obtained due to NADPH (excitation 340 nm, emission 485 nm) or NADH (excitation 350 nm, emission 460 nm) oxidation of the first 90 sec reaction is used to compute the slopes using linear regression analysis on GraphPad Prism. Appropriate blank reactions are included to account for background fluorescence/quenching from each of the components such as DMSO, the compound itself and auto-oxidation of NADPH or NADH. Activity of NfsB with a known substrate such as nitrofurantoin is used as a benchmark to plot the relative activities with all the test compounds.

T1 sequence (P38489 whole entry): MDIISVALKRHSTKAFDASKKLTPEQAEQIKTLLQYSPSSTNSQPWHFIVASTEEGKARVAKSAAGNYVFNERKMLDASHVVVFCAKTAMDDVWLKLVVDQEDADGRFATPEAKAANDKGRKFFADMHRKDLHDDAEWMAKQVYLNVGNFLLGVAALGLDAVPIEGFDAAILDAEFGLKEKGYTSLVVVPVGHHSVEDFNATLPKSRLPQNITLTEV

## Cc1sc(NC(=O)c2ccc([N+](=O)[O-])s2)nc1-c1ccccc1 [compound 7, N-(5-Methyl-4-phenylthiazol-2-yl)-5-nitrothiophene-2-carboxamide]
[1]; E. coli WT BW25113
  MIC WT: >40 µg/mL
[1]; Escherichia coli, BW25113, E. coli WT BW25113, read-out: MIC WT
  MIC: > 40 µg/mL
NfsB
  NfsB activity (rate of compound conversion): 6.17 µM/min

Source: publication PMC5940854, “Nitrothiophene carboxamides, a novel narrow spectrum antibacterial series: Mechanism of action and Efficacy” (Scientific Reports, 2018)
